Reference: patent publication US9757428B2, “Designed peptides for tight junction barrier modulation” (University of Rochester, priority 2013, dated 2017)
Where no end group is shown, it is not given here.

Assays:
[1] = test system: T84 (transplantable human carcinoma) cells; conditions: cited from earlier work
[2] = test system: Caco-2, HEK-293, and rat perineural TJ barriers; conditions: Caco-2, HEK-293, rat perineural in vivo; cited from earlier work
16HBE TJs [3] = assay: Transepithelial electrical resistance (TER) of 16HBE tight junction barrier, peptides applied apically; type: cell-based, Human; conditions: for drop in TER: 2.4 μM peptide; for recovery of barrier function (TER) after peptide removal: 0.024 to 12 μM, washout and further 24 h incubation; for effect of unrelated peptides on TER: 2-12 μM; for barrier disruption by labeled peptides, measured by decreased TER: representative experiment (n=2)
Experimental: Before use, peptide fibrils were prepared in sterile, filtered phosphate buffered saline containing 0.12% Pluronic F-127® by sonication at 55° C. for 20 minutes. Peptide concentrations were determined by BCA assay (Pierce). 20× peptide stocks were prepared in 0.12% pluronic F-127/PBS, then diluted 20× into phosphate buffer, PBS or DMEM containing 1% heat-inactivated fetal bovine serum and incubated at 37° C. for 18-24 hours before cell exposure or biophysical analysis, maintaining a constant surfactant concentration (0.006% Pluoronic® F127) for vehicle and peptide samples.
(§1) Human bronchial epithelial cells (16HBE) were grown on collagen-coated polystyrene in DMEM containing 10% heat inactivated fetal bovine serum, 10 mM HEPES, penicillin, streptomycin, and amphotericin with fresh media every 2-3 days. Cells were plated at the indicated density and grown for the indicated period. Peptides were diluted 20× into DMEM (Gibco #31053 containing 2 mM L-glutamine but lacking phenol red) containing 1% heat-inactivated fetal bovine serum and incubated at 37° C. for 18 hours before exposure. Pluronic F-127 concentrations (0.006% in cell culture media) were consistent between vehicle controls and peptide-containing samples. Cells were acclimated to the same media for 18 hours before peptide exposure.
(§2) For transepithelial electrical resistance (TER) and permeability experiments, the results of which are shown in FIGS. 4A-4B, respectively, cells were plated at a density of 75,000 per 0.33 cm^2 transwell (Corning TW, […], polyester) and grown for 5-6 days before acclimation/peptide exposure. TER measurements were taken with chopstick electrodes using a World Precision Instruments voltohmeter, and are expressed as the measured (cellular resistance—resistance of a TW insert with no cells)/surface area of the TW insert. TER was measured before peptide exposure (time=0) and at the indicated time points thereafter. After the 24 hour measurement, a control TW was lysed with 1% Triton X-100. For permeability flux assay, 1/10 volume of 0.2% sodium fluorescein or a mixture of 40 kD FITC-dextran (600 μg/mL final apical concentration) and Alexafluor®-568 labeled Synagis monoclonal antibody was added to the apical chamber and cells were incubated at 37° C. for 30 minutes or 18 hours. Synagis monoclonal antibody was labeled with Alexafluor®-568-succinimidyl ester according to the manufacturer's instructions, unreacted fluorophor removed using centrifugal filtration, and labeled antibody resuspended in PBS containing FITC-labeled 40 kD dextran. Fluorescence in the basolateral media was read in a Tecan M1000 fluorescence plate reader using Greiner μ-clear bottom 384-well plates (λex=494 nm and λem=512 nm for fluorescein and FITC-dextran and λex=578 nm and λem=605 nm for Alexafluor®-568 using a 10 nm slit width). Error is presented as the standard error of the mean, and significance relative to the vehicle control indicated where P<0.05 using a two-tailed t-test. For TER and fluorescein permeability experiments, n=8. For barrier recovery after peptide washout and FD-40 and Alexafluor®-labeled monoclonal antibody (“AF-mAb”) permeability, n=4.
Human bronchial epithelial cells (16HBE) were used to model TJ barrier function. 16HBE cells develop a TJ barrier (transepithelial electrical resistance, TER=800-1500 Ω*cm^2 in 10% heat-inactivated calf serum) that persists for 14 days. 16HBE cells serve as a more robust epithelial TJ barrier model than primary human keratinocytes, which achieve varying degrees of terminal differentiation (e.g. TJ barrier function) and this declines within 24 hours. In the low serum media used for peptide exposure, 16HBE cells achieved 350-500 Ω*cm^2 TER which was stable for 3-4 days. Cell surface expression of Cldn1, Cldn4, Ocln, and ZO-1 were consistently observed by immunofluorescence staining (FIGS. 2A-2B).

16HBE TJs [4] = assay: Permeability flux assay (sodium fluorescein, FITC-dextran FD-40, labeled Synagis mAb) across 16HBE cultures; type: cell-based, Human; conditions: for increase in FITC-dextran 40 kDa (FD-40) permeability / increase in fluorescein (0.4 kDa) permeability: 24 hours exposure, relative to vehicle
Experimental: as §1, §2

16HBE cells = assay: WST1 cytotoxicity assay in 16HBE cells; type: cell-based, Human; conditions: for WST1 metabolism (cytotoxicity) of equilibrated peptides: 16HBE sub-confluent, 0.024-12 μM, 1, 4, 12 or 24 hour exposure; for concentration of freshly diluted peptide at which cytotoxicity was observed (WST1): 16HBE, stocks diluted and added without incubation, 12 h exposure
Experimental: For cytotoxicity measurements, cells were plated with a density of 7,500 per well in a 96-well plate and grown for one day before acclimation in DMEM containing 1% heat-inactivated fetal bovine serum. Cells were exposed to vehicle or peptide for 4, 12 or 24 hours. Control cells were lysed with 1% Triton X-100 for 15 minutes as a negative control. 10× WST1 stock (Clontech) was added to each well, and cells incubated for 12 minutes at 37° C. Media was removed and WST1 absorbance immediately read on a Perkin Elmer UV/Vis plate reader (WST1 A450−background A620). Error is presented as the standard error of the mean, and significance relative to the untreated control indicated (P<0.05). For cytotoxicity experiments, n=4. Representative data is presented.

[5] = test system: Cldn1 and Ocln localization in 16HBE cultures; assay: Immunofluorescence of TJ proteins (Cldn1, Ocln) and labeled peptides in 16HBE cultures; type: cell-based, Human; conditions: for Cldn1 and Ocln localization: 12 hours after exposure; for co-localization of labeled peptide with endogenous Cldn1: 2.4 μM, 4 hours exposure
Experimental: For immunohistochemical labeling, cells were plated at a density of 1.2×10^5 cells per 1.2 cm^2 coverslip in a 12-well plate and cultured in DMEM containing 10% heat-inactivated fetal bovine serum for 4-5 days. One day before peptide exposure, media was changed to DMEM/1% serum. Cells were exposed to peptide for 4 or 12 hours at 37° C. Cover slips were washed three times with PBS containing calcium (Gibco), fixed in cold methanol and blocked with 1% bovine serum albumin before staining Fluorophor was conjugated to propargyl-glycine labeled peptides using a ClickIt EdU kit according to the manufacturer's instructions (omitting cell exposure to EdU). For immunofluorescent staining, cells were incubated for one hour with primary antibodies (1:500 polyclonal anti-claudin 1 antibody and 1:400 monoclonal anti-occludin), washed with PBS and stained with Alexafluor®-488 anti-rabbit and Alexafluor®-568 anti-mouse secondary antibodies (1:1000). […] Coverslips were mounted in Vectastain containing DAPI and imaged on an Olympus BX60 fluorescence microscope. Cldn1 and Ocln images were taken using SPOT software with no further digital manipulation.

nasal cavity = assay: Luciferase permeability experiment in mouse nasal cavity; type: in vivo; conditions: mice, intranasal peptide, luciferase applied after 12 or 24 hours
Experimental: Luciferase permeability experiments were carried out as follows. […] After 12 or 24 hours, a solution of 10 micrograms luciferase was applied. Mice were then imaged at various time points to determine the amount of luciferase remaining in the nasal cavity.

[6] = test system: influenza hemagglutinin (HA); assay: Intranasal immunization with influenza hemagglutinin (HA); conditions: mice; for serum antibody titers to HA: day 18, 28 and 35; for HA-specific antibodies (IgG and IgA) in bronchial lavage: day 48
Experimental: Immunization experiments with influenza hemagglutinin were carried out as follows. Mice (4 mice per group) were treated in the nasal cavity with vehicle alone (0.006% Pluronic F127 in saline), vehicle plus influenza hemagglutinin (HA), or vehicle plus HA plus a permeabilizing agent (peptides 1A or 2A, or semen-derived enhancer of virus infection (SEVI)). Antibody titers to HA in serum were assessed at day 18, 28, and 35 after treatment, and HA-specific IgG and IgA were determined in bronchial lavage at day 48 post treatment.

[7] = for comparison; cited from earlier work

In the case of “rat Cldn1 (53-80) peptide: rat claudin-1 extracellular loop peptide of Mrsny et al. (SCVSQSTGQIQCKVFDSLLNLNSTLQAT; UniProt P56745 53-80, looked up, fragment)”, the “concentration able to disrupt intact TJs” value [1] is listed as 200 µM and the “concentration shown to inhibit calcium-induced TJ formation” value [1] is listed as 25 µM.

For “Rat Cldn1 (53-81, C54,64S) peptide: rat claudin-1 peptide with Cys to Ser, of Zwanziger et al. (SSVSQSTGQIQSKVFDSLLNLNSTLQATR; UniProt P56745 53-81, looked up, variant C54S C64S)”, the “concentration disrupting TJ barriers” value [2] is listed as 200 to 300 µM.

In the case of “H-SSVSQSTGQIQSKVFDSLLNLSSTLQATR-NH2 [Peptide 1a]”, the “drop in TER” value (16HBE TJs [3]; 16HBE, 24 hours) is reported as 65.9±6.9%, the “time to statistically significant (P<0.05) decrease in TER” value (16HBE TJs [3]; 16HBE, 12 μM peptide) is reported as no more than 8 h and the “recovery of barrier function (TER) after peptide removal” value (16HBE TJs [3]; 16HBE) is reported as “barrier function recovers”. For the same substance, the “lowest concentration giving a statistically significant (P<0.05) decrease in TER” value (16HBE TJs [3]; 16HBE, by 24 hours) was 240 nM, the “enhancement of labeled therapeutic antibody (Synagis, 168 kD) penetration” value (from here on “enhancement”) (16HBE TJs [4]; 2.4 μM peptide) was 2.5±0.2 fold and the “increase in FITC-dextran 40 kDa (FD-40) permeability” value (“increase in FITC-dextran 40 kDa” for short) (16HBE TJs [4]; 2.4 μM peptide) was 11.2±0.9 fold. For the same substance, the “increase in fluorescein (0.4 kDa) permeability” value (“increase in fluorescein” below) (16HBE TJs [4]; 2.4 μM peptide) was 4.1±0.9 fold, the “enhancement” value (16HBE TJs [4]; 12 μM peptide) was 3.2±0.4 fold and the “increase in FITC-dextran 40 kDa” value (16HBE TJs [4]; 12 μM peptide) was 16.8±1.9 fold. The “increase in fluorescein” value (16HBE TJs [4]; 12 μM peptide) was 6.7±1.3 fold, the “WST1 metabolism (cytotoxicity) of equilibrated peptides” value (16HBE cells) was “No alterations in WST1 metabolism” and the “concentration of freshly diluted peptide at which cytotoxicity was observed (WST1)” value (16HBE cells) was 1200 nM. The “Cldn1 and Ocln localization” value [5] was “disturbed”, the “luciferase lost from the nasal cavity” value (nasal cavity) was “trend of higher amounts of luciferase lost from the nasal cavity” and the “serum antibody titers to HA” value [6] was “trend of enhancement”. The “HA-specific antibodies (IgG and IgA) in bronchial lavage” value [6] was “trend of enhancement”.

With “Aβ40: unrelated peptide tested in the same concentration range [reference compound]” the “effect of unrelated peptides on TER” value (16HBE TJs [3]; 16HBE) was “did not decrease TER”.

With “SILTGVSTLDQSLKQLSNFSQAVSTQSSR [Peptide 2b, labeled scrambled peptide 2 with N-terminal biotin-N-propargyl glycine tag]” the “barrier disruption by labeled peptides, measured by decreased TER” value (16HBE TJs [3]; 16HBE) was “cause disruption of barrier” and the “co-localization of labeled peptide with endogenous Cldn1” value [5] was “co-localize with endogenous Cldn1”.

With “SSVSQSTGQIQSKVFDSLLNLSSTLQATR [Peptide 1b, labeled peptide 1 with N-terminal biotin-N-propargyl glycine tag]” the “barrier disruption by labeled peptides, measured by decreased TER” value (16HBE TJs [3]; 16HBE) was “cause disruption of barrier” and the “co-localization of labeled peptide with endogenous Cldn1” value [5] was “co-localize with endogenous Cldn1”.

In the case of “FKFEFKFE-NH2 [(FKFE)2, unrelated peptide tested in the same concentration range, reference compound]”, the “effect of unrelated peptides on TER” value (16HBE TJs [3]; 16HBE) is reported as “did not decrease TER”.

In the case of “Aβ42: Amyloid Beta-Peptide 1-42 [reference compound]”, the TJ disruption (16HBE TJs [3]; 2.4 μM) is listed as “disrupt TJs, but to a lesser extent than peptides 1a and 2a” and the “critical concentration (Cr)” value [7] is listed as “about 1 μM”.

With “H-SILTGVSTLDQSLKQLSNFSQAVSTQSSR-NH2 [Peptide 2a]” the “drop in TER” value (16HBE TJs [3]; 16HBE, 24 hours) was 80±2.4%, the “decrease in TER” value (16HBE TJs [3]; 16HBE, 12 μM peptide, 24 hours) was 92±1.6% and the “recovery of barrier function (TER) after peptide removal” value (16HBE TJs [3]; 16HBE) was “barrier function recovers”. The “enhancement” value (16HBE TJs [4]; 2.4 μM peptide) was 4.9±0.4 fold, the “increase in FITC-dextran 40 kDa” value (16HBE TJs [4]; 2.4 μM peptide) was 25.3±1.6 fold and the “increase in fluorescein” value (16HBE TJs [4]; 2.4 μM peptide) was 5.6±0.4 fold. For the same substance, the “enhancement” value (16HBE TJs [4]; 12 μM peptide) was 5.6±0.9 fold, the “increase in FITC-dextran 40 kDa” value (16HBE TJs [4]; 12 μM peptide) was 30.5±3.0 fold and the “increase in fluorescein” value (16HBE TJs [4]; 12 μM peptide) was 16.4±2.2 fold. For the same substance, the “WST1 metabolism (cytotoxicity) of equilibrated peptides” value (16HBE cells) was “No alterations in WST1 metabolism”, the “concentration of freshly diluted peptide at which cytotoxicity was observed (WST1)” value (16HBE cells) was 200 nM and the “Cldn1 and Ocln localization” value [5] was “disturbed”. For the same substance, the “serum antibody titers to HA” value [6] was “trend of enhancement” and the “HA-specific antibodies (IgG and IgA) in bronchial lavage” value [6] was “trend of enhancement”.
